# Laboratory results as given in patent publication US4477464A, “Hetero-benzazepine derivatives and their pharmaceutical use” (Ciba-Geigy Corporation, priority 1983, dated 1984).
# Where a name gives a salt, the structure may show the parent alone.
# Assays:
# [1] = molecular target: T1, angiotensin-converting enzyme (Oryctolagus cuniculus, UniProt P12822); experiment: in vitro inhibition of angiotensin-converting enzyme (hippuryl-histidyl-leucine substrate); type: biochemical, rabbit; settings: angiotensin-converting enzyme preparation from lungs of adult male rabbits, 37° C., 30 minutes
# T1 construct: angiotensin-converting enzyme preparation (from lungs of adult male rabbits); from tissue; host or cells: lungs of adult male rabbits
# T1 sequence (P12822 34-1310): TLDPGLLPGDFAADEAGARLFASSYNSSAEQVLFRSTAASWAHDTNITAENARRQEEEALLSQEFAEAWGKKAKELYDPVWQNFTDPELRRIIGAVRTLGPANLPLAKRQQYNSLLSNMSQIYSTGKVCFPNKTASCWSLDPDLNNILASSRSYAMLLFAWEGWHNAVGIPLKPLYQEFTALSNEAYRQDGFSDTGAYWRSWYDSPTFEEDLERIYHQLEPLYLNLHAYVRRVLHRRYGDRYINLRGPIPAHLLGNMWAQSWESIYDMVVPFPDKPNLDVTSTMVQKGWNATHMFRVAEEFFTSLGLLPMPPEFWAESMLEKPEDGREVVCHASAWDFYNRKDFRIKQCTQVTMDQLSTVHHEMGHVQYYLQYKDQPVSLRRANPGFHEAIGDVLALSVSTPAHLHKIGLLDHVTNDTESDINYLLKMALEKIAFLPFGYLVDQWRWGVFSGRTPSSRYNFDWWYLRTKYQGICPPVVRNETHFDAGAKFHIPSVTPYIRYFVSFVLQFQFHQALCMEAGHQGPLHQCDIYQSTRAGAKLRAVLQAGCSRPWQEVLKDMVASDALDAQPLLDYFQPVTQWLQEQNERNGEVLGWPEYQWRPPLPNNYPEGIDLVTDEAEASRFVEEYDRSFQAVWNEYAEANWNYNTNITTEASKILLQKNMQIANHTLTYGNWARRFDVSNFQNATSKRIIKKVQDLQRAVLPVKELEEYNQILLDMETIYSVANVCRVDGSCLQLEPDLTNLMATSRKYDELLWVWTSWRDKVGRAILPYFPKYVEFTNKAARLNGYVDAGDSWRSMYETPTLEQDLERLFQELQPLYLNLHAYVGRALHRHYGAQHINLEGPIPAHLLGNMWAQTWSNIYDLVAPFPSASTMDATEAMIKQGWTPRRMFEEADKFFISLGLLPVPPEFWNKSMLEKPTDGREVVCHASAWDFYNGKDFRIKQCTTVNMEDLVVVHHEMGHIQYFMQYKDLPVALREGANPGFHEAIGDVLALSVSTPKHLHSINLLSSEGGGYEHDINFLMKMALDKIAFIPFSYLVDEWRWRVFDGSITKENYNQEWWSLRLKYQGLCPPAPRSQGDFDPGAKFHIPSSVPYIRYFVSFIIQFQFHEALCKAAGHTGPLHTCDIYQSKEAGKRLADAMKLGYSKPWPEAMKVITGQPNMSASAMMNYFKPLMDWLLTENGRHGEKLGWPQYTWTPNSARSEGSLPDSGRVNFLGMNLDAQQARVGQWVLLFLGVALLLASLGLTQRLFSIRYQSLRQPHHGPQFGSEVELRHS
# Procedure: Biophys. Acta 293, 451 (1973). According to this method, said compounds are dissolved at about 1 mM concentration in phosphate buffer. To 100 microliters of solutions of the test compound in phosphate buffer, diluted to the desired concentration, are added 100 microliters of 5 mM hippuryl-histidyl-leucine in phosphate buffer, followed by 50 microliters of the angiotensin-converting enzyme preparation (from lungs of adult male rabbits) in Tris buffer, containing potassium and magnesium chloride, as well as sucrose. Said solutions are incubated at 37° C. for 30 minutes and combined with 0.75 ml of 0.6N aqueous sodium hydroxide to stop further reaction. Then 100 microliters of a 0.2% solution of o-phthalaldehyde in methanol are added at room temperature, and 10 minutes later 100 microliters of 6N hydrochloric acid. These samples are read against water in a spectrophotometer set at 360 nm, and the optical densities thereof estimated. They are corrected for the standard curve via a conversion factor expressing nanomoles of histidyl-leucine formed during said 30 minute incubation period. The results are plotted against drug concentration to determine the IC50, i.e., the drug concentration which gives half the activity of the control sample containing no drug.
# [2] = system: spontaneously hypertensive rats; experiment: antihypertensive effect in spontaneously hypertensive rats, indirect systolic pressure; type: in vivo, rat; settings: 10 mg/kg p.o.
# Procedure: The in vivo lowering effect on the blood pressure is recorded, either directly by means of a catheter, placed in the test animal's femoral artery, or indirectly by sphygmomanometry at the rat's tail or a transducer. The blood pressure is recorded in mm Hg prior to and after dosing.
# Thus the antihypertensive effects are demonstrable in spontaneously hypertensive rats by indirect measurement of systolic pressure. Conscious rats are placed individually in restraint cages within a gently warmed chamber. A rubber pulse sensor is placed distal to an inflatable occlusive cuff on each rat's tail. The cuff is periodically inflated to occlude the tail artery, and systolic pressure is recorded as the point where the first discernible pulse emerges along the decaying calibrated pressure curve. After obtaining control values of blood pressure and heart rate, test compounds are administered orally once daily for 4 consecutive days. Additional blood pressure measurements are usually made at 2.0, 4.0 and 23.5 hours after each daily dosing, and responses are compared to those of rats dosed with the treatment vehicle.
# Illustrative of the invention, the compound of example 3a at a dose of 10 mg/kg p.o. lowers blood pressure by about 35 mm Hg.
# [3] = system: angiotensin-converting enzyme; experiment: inhibition of Angiotensin I induced pressor response in normotensive rats; type: in vivo, rat; settings: normotensive anesthetized rats, 10 mg/kg p.o., measured 2 to 4 hours after administration
# Procedure: Angiotensin I is hydrolyzed by the action of said converting enzyme to the potent pressor substance Angiotensin II. The inhibition of said enzyme prevents the generation of Angiotensin II from I and, therefore, attenuates any pressor response following an Angiotensin I challenge.
# The corresponding in vivo test is performed with male, normotensive rats, which are anesthetized with sodium 5-ethyl-5-(1-methylpropyl)-2-thiobarbiturate. A femoral artery and saphenous vein are cannulated respectively for direct blood pressure measurement and the i.v. administration of Angiotensin I and a compound of this invention. After the basal blood pressure is stabilized, pressor responses to 3 challenges of 333 ng/kg angiotensin I i.v., at 5 minute intervals, are obtained. Such pressure responses are usually again obtained at time intervals after i.v. or p.o. administration of the compound to be tested, and compared with the initial responses. Any observed decrease of said pressor response is an indication of Angiotensin I converting enzyme inhibition. Illustrative of this invention, the compound of example 3a inhibits the pressor response following angiotensin I challenge by about 70% at a dose of 10 mg/kg p.o. as measured 2 to 4 hours after administration.
Compound,IC50 [1] [nM],lowering of blood pressure [2],inhibition of pressor response following angiotensin I challenge [3]
"O=C(O)CN1C(=O)[C@@H](NC(CCc2ccccc2)C(=O)O)CSc2ccccc21 (stereo partly drawn) [Example 2, (3R)-[N-(1-carboxy-3-phenylpropyl)amino]-5-carboxymethyl-2,3-dihydro-1,5-benzothiazepin-4(5H)-one]",~10,,
"CCOC(=O)[C@H](CCc1ccccc1)N[C@H]1CSc2ccccc2N(CC(=O)O)C1=O [Example 3a, (3R)-{N-[(1S)-carboethoxy-3-phenylpropyl]amino}-5-carboxymethyl-2,3-dihydro-1,5-benzothiazepin-4(5H)-one hydrochloride]",,about 35 mm Hg,about 70%

# Now from value to molecule, other results behind:
IC50 [1] [nM],Compound,lowering of blood pressure [2],inhibition of pressor response following angiotensin I challenge [3]
~3,"O=C(O)CN1C(=O)[C@@H](N[C@@H](CCc2ccccc2)C(=O)O)CSc2ccccc21 [Example 6, (3R)-{N-[(1S)-carboxy-3-phenylpropyl]amino}-5-carboxymethyl-2,3-dihydro-1,5-benzothiazepin-4(5H)-one]",,
~6,"O=C(O)CN1C(=O)[C@@H](N[C@@H](CCc2ccccc2)C(=O)O)C[S+]([O-])c2ccccc21 (stereo partly drawn) [Example 12, (3R)-{N-[(1S)-carboxy-3-phenylpropyl]amino}-5-carboxymethyl-2,3-dihydro-1-oxo-1,5-benzothiazepin-4(5H)-one]",,
~28,"NCCCCC(N[C@H]1CSc2ccccc2N(CC(=O)O)C1=O)C(=O)O (stereo partly drawn) [Example 14, (3R)-[N-(1-carboxy-5-aminopentyl)amino]-5-carboxymethyl-2,3-dihydro-1,5-benzothiazepin-4(5H)-one dihydrochloride]",,
